Results from US5478816A, “Liquid vitamin formulations containing vitamin D esters” (Bristol-Myers Squibb Company, priority 1993, dated 1995).
Where “and” joins values, the source holds several entries; their conditions need not be identical. Identical values can stand only once. Like-named read-outs stand apart in the source and are kept apart here.

Experiment: Short-term stability of vitamin D3 and vitamin D3 palmitate in liquid vitamin formulations at 40° C. (HPLC assay)
Format: physicochemical
Details: 40° C.; for half-life: liquid vitamin formulation, first order fit of 16 weeks data, read-out: Time in Weeks for 50% Degradation (T50)
Procedure: In addition to the above, the vitamin formulation contains flavorants, stabilizer of vitamins, and about 1.0% polysorbate 80 as surfactant. As appreciated by the skilled artisan, appropriate overages of vitamins are included in order to assure meeting the label claims. The example composition contains 1.86:1 ratio by weight of glycerine to water. The pH is 5.0 which is adjusted by using an appropriate ratio of ascorbic acid to sodium ascorbate.
Vitamin D was analyzed by a HPLC assay as described by Matthew G. Sliva, et al., "Reversed-Phase Liquid Chromatographic Determination of Vitamin D in Infant Formulas and Enteral Nutritionals," J Assoc. Off. Anal. Chem., 75, 566, 1992, except that saponification conditions of 70° C. for 40 minutes were employed.
Stability of vitamins D3 and D3 palmitate were compared in various vitamin formulations containing different amounts of water and glycerin and at different pHs. The other ingredients and method of pH adjustment were as described in Example 1. The results are in Tables 2-5. Each batch number represents a different liquid vitamin formulation. The amount of glycerin varied between 650 and 850 mg/ml, depending upon the amount of water. "Vit" represents vitamin, "Desc." represents description,"Vit D3" represents vitamin D3, and "Vit D3P" or "D3 P" represents vitamin D3 palmitate. Table 1 lists the half-life (T50) values, i.e., time to degrade to 50% of the starting concentration of vitamins D3 and D3 palmitate at 40° C., These T50 values were calculated by fitting the data to first order degradation rate.

## C=C1CC[C@H](O)C/C1=C/C=C1\CCC[C@]2(C)[C@@H]([C@H](C)CCCC(C)C)CC[C@@H]12 [Vitamin D3, vitamin D3]
pH 3.2, pH 3.2, 252 mg/ml water
  half-life: 220 days
pH 3.2, pH 3.2, 390 mg/ml water
  half-life: 73.5 days
pH 4.2, pH 4.2, 252 mg/ml water
  half-life: 105 days
pH 4.2, pH 4.2, 390 mg/ml water
  half-life: 44.8 days
pH 5, pH 5.0, 252 mg/ml water
  half-life: 117 days
pH 5, pH 5.0, 320 mg/ml water
  half-life: 86.8 days
pH 5, pH 5.0, 390 mg/ml water
  half-life: 40.6 days
pH 5, pH 5.0, 435 mg/ml water
  half-life: 39.9 days
pH 5.6, pH 5.6, 252 mg/ml water
  half-life: 146 days
pH 5.6, pH 5.6, 390 mg/ml water
  half-life: 44.1 days
pH 3.2, 252 mg/ml water, age 0 weeks, Batch #1 (D3), #2 (D3 P)
  Vitamin D content on storage: 787 IU/ml and 789 IU/ml
pH 3.2, 252 mg/ml water, age 1 week, Batch #1 (D3), #2 (D3 P)
  Vitamin D content on storage: 714 IU/ml and 724 IU/ml
pH 3.2, 252 mg/ml water, age 2 weeks, Batch #1 (D3), #2 (D3 P)
  Vitamin D content on storage: 718 IU/ml and 691 IU/ml
pH 3.2, 252 mg/ml water, age 4 weeks, Batch #1 (D3), #2 (D3 P)
  Vitamin D content on storage: 720 IU/ml and 713 IU/ml
pH 3.2, 252 mg/ml water, age 6 weeks, Batch #1 (D3), #2 (D3 P)
  Vitamin D content on storage: 656 IU/ml and 628 IU/ml
pH 3.2, 252 mg/ml water, age 8 weeks, Batch #1 (D3), #2 (D3 P)
  Vitamin D content on storage: 658 IU/ml and 634 IU/ml
pH 3.2, 252 mg/ml water, age 12 weeks, Batch #1 (D3), #2 (D3 P)
  Vitamin D content on storage: 514 IU/ml and 586 IU/ml
pH 3.2, 252 mg/ml water, age 16 weeks, Batch #1 (D3), #2 (D3 P)
  Vitamin D content on storage: 559 IU/ml and 542 IU/ml
pH 3.2, 390 mg/ml water, age 0 weeks, Batch #3 (D3), #4 (D3 P)
  Vitamin D content on storage: 445 IU/ml and 447 IU/ml
pH 3.2, 390 mg/ml water, age 1 week, Batch #3 (D3), #4 (D3 P)
  Vitamin D content on storage: 429 IU/ml
pH 3.2, 390 mg/ml water, age 2 weeks, Batch #3 (D3), #4 (D3 P)
  Vitamin D content on storage: 392 IU/ml and 399 IU/ml
pH 3.2, 390 mg/ml water, age 4 weeks, Batch #3 (D3), #4 (D3 P)
  Vitamin D content on storage: 359 IU/ml and 369 IU/ml
pH 3.2, 390 mg/ml water, age 8 weeks, Batch #3 (D3), #4 (D3 P)
  Vitamin D content on storage: 282 IU/ml and 271 IU/ml
pH 3.2, 390 mg/ml water, age 12 weeks, Batch #3 (D3), #4 (D3 P)
  Vitamin D content on storage: 207 IU/ml and 211 IU/ml
pH 3.2, 390 mg/ml water, age 16 weeks, Batch #3 (D3), #4 (D3 P)
  Vitamin D content on storage: 160 IU/ml and 149 IU/ml
pH 4.2, 252 mg/ml water, age 0 weeks, Batch #5 (D3), #6 (D3 P)
  Vitamin D content on storage: 450 IU/ml
pH 4.2, 252 mg/ml water, age 1 week, Batch #5 (D3), #6 (D3 P)
  Vitamin D content on storage: 440 IU/ml and 445 IU/ml
pH 4.2, 252 mg/ml water, age 2 weeks, Batch #5 (D3), #6 (D3 P)
  Vitamin D content on storage: 422 IU/ml and 425 IU/ml
pH 4.2, 252 mg/ml water, age 4 weeks, Batch #5 (D3), #6 (D3 P)
  Vitamin D content on storage: 364 IU/ml and 371 IU/ml
pH 4.2, 252 mg/ml water, age 8 weeks, Batch #5 (D3), #6 (D3 P)
  Vitamin D content on storage: 331 IU/ml and 315 IU/ml
pH 4.2, 252 mg/ml water, age 12 weeks, Batch #5 (D3), #6 (D3 P)
  Vitamin D content on storage: 255 IU/ml and 267 IU/ml
pH 4.2, 252 mg/ml water, age 16 weeks, Batch #5 (D3), #6 (D3 P)
  Vitamin D content on storage: 198 IU/ml and 224 IU/ml
pH 4.2, 390 mg/ml water, age 0 weeks, Batch #7 (D3), #8 (D3 P)
  Vitamin D content on storage: 451 IU/ml and 448 IU/ml
pH 4.2, 390 mg/ml water, age 1 week, Batch #7 (D3), #8 (D3 P)
  Vitamin D content on storage: 420 IU/ml and 418 IU/ml
pH 4.2, 390 mg/ml water, age 2 weeks, Batch #7 (D3), #8 (D3 P)
  Vitamin D content on storage: 357 IU/ml and 360 IU/ml
pH 4.2, 390 mg/ml water, age 4 weeks, Batch #7 (D3), #8 (D3 P)
  Vitamin D content on storage: 301 IU/ml and 299 IU/ml
pH 4.2, 390 mg/ml water, age 8 weeks, Batch #7 (D3), #8 (D3 P)
  Vitamin D content on storage: 181 IU/ml and 178 IU/ml
pH 4.2, 390 mg/ml water, age 12 weeks, Batch #7 (D3), #8 (D3 P)
  Vitamin D content on storage: 109 IU/ml and 124 IU/ml
pH 4.2, 390 mg/ml water, age 16 weeks, Batch #7 (D3), #8 (D3 P)
  Vitamin D content on storage: 91.7 IU/ml and 76.1 IU/ml
pH 5.0, 252 mg/ml water, age 0 weeks, Batch #9 (D3), #10 (D3 P)
  Vitamin D content on storage: 840 IU/ml and 851 IU/ml
pH 5.0, 252 mg/ml water, age 1 week, Batch #9 (D3), #10 (D3 P)
  Vitamin D content on storage: 791 IU/ml and 793 IU/ml
pH 5.0, 252 mg/ml water, age 4 weeks, Batch #9 (D3), #10 (D3 P)
  Vitamin D content on storage: 720 IU/ml and 700 IU/ml
pH 5.0, 252 mg/ml water, age 8 weeks, Batch #9 (D3), #10 (D3 P)
  Vitamin D content on storage: 583 IU/ml and 590 IU/ml
pH 5.0, 252 mg/ml water, age 12 weeks, Batch #9 (D3), #10 (D3 P)
  Vitamin D content on storage: 478 IU/ml and 482 IU/ml
pH 5.0, 252 mg/ml water, age 16 weeks, Batch #9 (D3), #10 (D3 P)
  Vitamin D content on storage: 460 IU/ml and 430 IU/ml
pH 5.0, 390 mg/ml water (so in the source), age 0 weeks, Batch #11 (D3), #12 (D3 P)
  Vitamin D content on storage: 454 IU/ml and 449 IU/ml
pH 5.0, 390 mg/ml water (so in the source), age 1 week, Batch #11 (D3), #12 (D3 P)
  Vitamin D content on storage: 432 IU/ml and 423 IU/ml
pH 5.0, 390 mg/ml water (so in the source), age 2 weeks, Batch #11 (D3), #12 (D3 P)
  Vitamin D content on storage: 424 IU/ml and 426 IU/ml
pH 5.0, 390 mg/ml water (so in the source), age 4 weeks, Batch #11 (D3), #12 (D3 P)
  Vitamin D content on storage: 377 IU/ml and 371 IU/ml
pH 5.0, 390 mg/ml water (so in the source), age 8 weeks, Batch #11 (D3), #12 (D3 P)
  Vitamin D content on storage: 291 IU/ml and 281 IU/ml
pH 5.0, 390 mg/ml water (so in the source), age 12 weeks, Batch #11 (D3), #12 (D3 P)
  Vitamin D content on storage: 230 IU/ml and 237 IU/ml
pH 5.0, 390 mg/ml water (so in the source), age 16 weeks, Batch #11 (D3), #12 (D3 P)
  Vitamin D content on storage: 196 IU/ml and 182 IU/ml
pH 5.0, 390 mg/ml water, age 0 weeks, Batch #13 (D3), #14 (D3 P)
  Vitamin D content on storage: 453 IU/ml and 452 IU/ml
pH 5.0, 390 mg/ml water, age 1 week, Batch #13 (D3), #14 (D3 P)
  Vitamin D content on storage: 413 IU/ml and 410 IU/ml
pH 5.0, 390 mg/ml water, age 2 weeks, Batch #13 (D3), #14 (D3 P)
  Vitamin D content on storage: 363 IU/ml and 356 IU/ml
pH 5.0, 390 mg/ml water, age 4 weeks, Batch #13 (D3), #14 (D3 P)
  Vitamin D content on storage: 298 IU/ml and 305 IU/ml
pH 5.0, 390 mg/ml water, age 8 weeks, Batch #13 (D3), #14 (D3 P)
  Vitamin D content on storage: 166 IU/ml and 168 IU/ml
pH 5.0, 435 mg/ml water, age 0 weeks, Batch #15 (D3), #16 (D3 P)
  Vitamin D content on storage: 450 IU/ml and 453 IU/ml
pH 5.0, 435 mg/ml water, age 1 week, Batch #15 (D3), #16 (D3 P)
  Vitamin D content on storage: 400 IU/ml and 426 IU/ml
pH 5.0, 435 mg/ml water, age 2 weeks, Batch #15 (D3), #16 (D3 P)
  Vitamin D content on storage: 370 IU/ml
pH 5.0, 435 mg/ml water, age 4 weeks, Batch #15 (D3), #16 (D3 P)
  Vitamin D content on storage: 285 IU/ml and 291 IU/ml
pH 5.0, 435 mg/ml water, age 8 weeks, Batch #15 (D3), #16 (D3 P)
  Vitamin D content on storage: 187 IU/ml
